Data set [1] has as its system human ovarian carcinoma cell line A2780. As to the kind of experiment: In vitro cytotoxicity in A2780 (XTT assay). In kind it is cell-based. The settings on record: for IC50: Homo sapiens. On the procedure: (§1) Eleutherobin and the above described analogs are useful as cytotoxic agents. The compounds are used in the same manner as other known cytotoxic agents. They may be used alone or in combination with suitable pharmaceutical carriers and other bioactive materials. They are used both in vitro and in vivo to kill a wide variety of cell types. […] For example, in vitro toxicity of eleutherobin was tested in the HCT116 human colon carcinoma cell line and a multidrug resistant subline, HCT116/VM46, which overexpresses P-glycoprotein and is over 100-fold resistant to taxol. […] The cytotoxicity of eleutherobin was also tested in a human ovarian carcinoma cell line A2780. Eleutherobin was also found to be cytotoxic with respect to the A2780 cell line.
(§2) ^1 Cytotoxicity was determined after 72 hour exposure by XTT assay.

Data set [2] relates to HCT116 human colon carcinoma cell line. As to the kind of experiment: In vitro cytotoxicity in HCT116 (XTT assay). In kind it is cell-based. The settings on record: for IC50: Homo sapiens. On the procedure: as §1, §2
(In general: Formazan colour is commonly taken as a measure of viable cells.)

The subject of data set [3] is HCT116/VM46 human colon carcinoma subline, which overexpresses P-glycoprotein. Description: In vitro cytotoxicity in multidrug resistant subline HCT116/VM46 (XTT assay). It counts as cell-based. The settings on record: for fold resistance relative to corresponding parent cell line: HCT116/VM46 relative to HCT116, 4320 min; for IC50: Homo sapiens, HCT-116/VM46, HCT116/VM46, 72 hour exposure, XTT assay. On the procedure: as §1, §2
^2 Value in parenthesis is fold resistance relative to corresponding

Another data set has as its system cancer cells. As to the kind of experiment: Cytotoxicity, general statement. The note with it: in words. It counts as cell-based.
For data set [4] the following is noted: in words, background art; cited from earlier work.

Results on four compounds are retold here after patent US5473057A, “Eleutherobin and analogs thereof” (The Regents of the University of California, priority 1994, dated 1995).

By IC50 is commonly meant the concentration needed to halve the response being measured.

Entries after “also recorded” stand apart in the source; their conditions may differ. Like-named read-outs stand apart in the source and are kept apart here.

For `CO[C@]12C=C[C@](C)(O1)[C@@H](OC(=O)/C=C/c1cn(C)cn1)C[C@H]1C(C)=CC[C@H](C(C)C)[C@H]1/C=C\2COC1OCC(O)C(O)C1OC(C)=O` (some centres unmarked) [Eleutherobin], the IC50 in data set [1] (A2780, 72 h) was found to be 13.7 nM; in data set [2] (HCT-116, 72 h), 10.7 nM; in data set [3], 554 nM. Also, the “cytotoxicity with respect to the A2780 cell line” value in data set [1] (in words, A2780) is recorded as “cytotoxic”. In data set [2] (in words, HCT116), the “cytotoxicity in the HCT116 cell line compared with taxol” value was “nearly as cytotoxic as taxol”. In data set [3], the “fold resistance relative to corresponding parent cell line” value is listed as 52 fold. For the same compound, the cytotoxicity entry in the data set on cancer cells is recorded as “effective cytotoxin; also recorded: cytotoxic with respect to cancer cells”.

`CC(C)=CC(=O)O[C@H]1C[C@H]2C(C)=CC(=O)[C@H](C(C)C)[C@H]2/C=C(/C)[C@@]2(O)C=C[C@]1(C)O2` [Valdivone A]: the anti-inflammatory activity result in data set [4] is listed as “anti-inflammatory activity”.

Regarding `CC1=CC(=O)[C@H](C(C)C)[C@H]2/C=C(/C)[C@@]3(O)C=C[C@](C)(O3)[C@@H](OC(=O)Cc3ccccc3)C[C@@H]12` [Valdivone B], in data set [4], the anti-inflammatory activity entry is on record as “anti-inflammatory activity”.

Regarding `CC(=O)O[C@H]1C(=O)[C@@]2(C)[C@H]([C@H](OC(=O)c3ccccc3)[C@]3(O)C[C@H](OC(=O)[C@H](O)[C@@H](NC(=O)c4ccccc4)c4ccccc4)C(C)=C1C3(C)C)[C@]1(OC(C)=O)CO[C@@H]1C[C@@H]2O` [paclitaxel (taxol), paclitaxel], the IC50 in data set [1] (A2780, 72 hour exposure, XTT assay, read-out: IC50) came out at 6.7 nM; in data set [2] (HCT-116, HCT116, 72 hour exposure, XTT assay, read-out: IC50) it was 4.6 nM; in data set [3], 5.37 nM. In addition, the “fold resistance relative to corresponding parent cell line” value in data set [3] is recorded as 117 fold; in data set [3] (listed as taxol) it was “over 100 fold”.
